Measured values as given in patent US6548486B1, “Fatty acid esters of nucleoside analogs” (Norsk Hydro a.s., priority 1991, dated 2003).

Assays:
[1] = test system: HSV 2 strain relatively resistent to ACV; assay: Plaque method with a HSV 2 strain relatively resistent to ACV; assay type: cell-based; conditions: 0.9 μmol/l versus 2.2 μmol/l, FIG. 1B
Experimental: A virus preparation of HSV 2 (3rd passage of a clinical isolate) is diluted to 3×10^3 pfu/well, and thereafter inocculated on cells and incubated for 1 hour in a tissue culture of vero cells. At that time the virus is incorporated into the cells.
These cells are then cultivated for 24 hours with an anti-viral agent. Thereafter they are placed under freezing conditions, which lead to the disruption of the cells and free virus appear under the melting process. Dilutions of either 1/100 or 1/10000 are prepared and added to fresh tissue cultures. Incubation for 1 hour leads to incorporation of virus in the cells. Carboxymethylcellulose (CMC) is added in order to prohibit the migration of virus between the cells through the medium. Spread of virus by cell contact is still effective in causing the formation of plaques.
One plaque will represent one infectious virus. Thus the counting of plaques gives a precise quantitation of the number of infectious virus.
In a test done with a HSV 2 strain relatively resistent to ACV, the test compounds, ACV, ACV-oleate and ACV-elaidate, were added at 0.9 μmol/l or 2.2 μmol/l.

[2] = test system: HSV 2 (3rd passage of a clinical isolate); assay: Plaque method: tissue culture of HSV 2 in vero cells; assay type: cell-based; conditions: Ara T esters at 3.9 μmol/l, FIG. 2
[3] = test system: Herpes virus 2; assay: In vivo reduced mortality, Herpes Simplex Virus 2 infected mice; parameters: species or system female NMRI mice
Excerpt: The in vivo experiments were done using 3-4 weeks old female NMRI mice. This strain of mice is sensitive to the human herpes virus, up to an age of about 6 weeks, where after they become relatively resistant. Mice below this critical age were used, having a weight of 13-17 grams.
Herpes virus 2 which were third passage isolates were inocculated on the left ear lobe by a standarized procedure. […] Thus HSV 2 is especially suitable as a system for evaluation of the therapeutic efficiency by counting the number of cases of encephalitis.
The animals received approximately 12 mg/kg body weight/day through the drinking water. The compounds were added to the drinking water formulated as micelles with deoxycholate.
Both the control group and the groups receiving the test compounds included 10 animals in each group. The test compounds were ACV-elaidate and ACV in comparison with the control. Treatment was started on day 3 from inocculation. At that time the infection is well established in the central nerve system.

Structure (SMILES) | inhibitory effect at increasing concentration [1] | inhibition [2] [%] | survival rate ([3]; approximately 12 mg/kg body weight/day through the drinking water, treatment started day 3 from inocculation, FIG. 3) [%] | signs of encephalitis ([3]; surviving animals after 21 days)
CCCCCCCC/C=C\CCCCCCCC(=O)OCCOCn1cnc2c(=O)[nH]c(N)nc21 [ACV-oleate, 9-(2′-(cis-9′-Octadecenoylcxy)ethoxymethyl)-Guanine] | strongly enhanced at the higher concentration | – | – | –
CCCCCCCC/C=C\CCCCCCCC(=O)OC[C@H]1O[C@@H](n2cc(C)c(=O)[nH]c2=O)[C@@H](O)[C@@H]1O (relative stereo) [Ara T oleate, 5′-O-(cis-9″-Octadecenoyl)-1-β-D-Arabinofuranosyl-Thymine] | – | 100 | – | –
CCCCCCCC/C=C/CCCCCCCC(=O)OCCOCn1cnc2c(=O)[nH]c(N)nc21 [ACV-elaidate, 9-(2′-(trans-9″-Octadecenoyloxy)ethoxymethyl)-Guanine] | strongly enhanced at the higher concentration | – | 40 | no signs of encephalitis
Nc1nc2c(ncn2COCCO)c(=O)[nH]1 [ACV, 9-(2-Hydroxyethoxymethyl)-Guanine, reference compound] | remains at the same level | – | – | –
